Source: US12496353B2, “Synergistic effects between auristatin-based antibody drug conjugates and inhibitors of the PI3K-AKT mTOR pathway” (SEAGEN INC., priority 2010, dated 2025)
Non-standard residues stand in square brackets, D forms with d. Residues, ends and D or L forms follow the SMILES beside them. *: point of attachment. Dolaproine = CO[C@@H]([C@@H]1CCCN1)[C@@H](C)C(=O)O; Dil = CC[C@H](C)[C@H](NC)[C@@H](CC(=O)O)OC; X1 = C[C@@H](N*)[C@@H](O)c1ccccc1; NMeV = CN[C@H](C(=O)O)C(C)C

Legend:
786-O cells = experiment: In vitro combination cytotoxicity (Cell Titer Glo, Chou-Talalay CI), 786-O; type: cell-based; settings: for cytotoxicity of the drug alone / interaction with the rapalogs temsirolimus, sirolimus, and everolimus: 786-O cell line; for cytotoxicity of the drug alone: single drug; for effect on the cytotoxicity of h1F6-mcF: RCC cell lines (786-O and Caki-2 named in the sentence before); for interaction with the rapalogs temsirolimus, sirolimus, and everolimus: FIG. 2
Procedure: (§1) 786-O cells were cultured in Roswell Park Memorial Institute medium (RPMI) 1640+10% fetal bovine serum (FBS). Caki-1 cells were cultured in McCoy's 5A medium+10% FBS. Caki-2 cells were cultured in McCoy's 5A medium+2% FBS. 786-O, Caki-1, and Caki-2 cells (renal cell carcinoma cell lines) were all cultured at 37° C. with 5% CO2. L540cy cells were cultured in RPMI 1640+20% FBS. L428 cells were cultured in RPMI 1640+10% FBS. L540cy and L428 cell lines are Hodgkin lymphoma cell lines. Karpas-299 cells were cultured in RPMI 1640+10% FBS. The Karpas-299 cell line is an anaplastic large cell lymphoma cell (ALCL) line. HT cells were cultured in RPMI 1640+10% FBS. Raji 4RII cells (clone-11) were a gift from Francisco J. Hernandez-Ilizaliturri and cultured in RPMI 1640+10% FBS. HT and Raji 4RH cell lines are Non-Hodgkin lymphoma cell lines. Jeko-1 cells were cultured in RPMI-1640+10% FBS . Jeko-1 cell lines are mantle cell lymphoma cell lines.
Cells were plated in 100 μL growth media per well into black-sided clear-bottom 96-well plates. Next, 4× concentration working stocks of small molecule inhibitor and antibody drug conjugate were prepared, and then titrated as 2-fold serial dilutions producing 10-point dose curves. For the single drug conditions, 50 μL small molecule inhibitor or ADC or free auristatin was added to each well in quadruplicate with 50 μL of media producing a final volume of 200 μL per well. For the combination conditions, 50 μL small molecule inhibitor and 50 μL ADC or free auristatin dilution were added to the cells (overlaying the dose titrations of each drug: high to low) in quadruplicate producing a final volume of 200 μ, per well. Treated cells were incubated 96 hours at 37° C., 5% CO2. Cytotoxicity was measured by incubating with 100 μL Cell Titer Glo (Promega) solution for 1 hour, and then luminescence was measured on a Fusion HT plate reader (Perkin Elmer). Data was processed with Excel (Microsoft) and GraphPad (Prism) to produce dose response curves and calculate the fraction affected (f a) at each dose concentration. Then CalcuSyn (Biosoft) software was used to determine synergism, additivity, or antagonism for each drug combination using the median-effect equation of Chou-Talalay: D=Dm[fa/(1−fa)]^1/m Median-effect equation
(D) is the dose of the drug. (Dm) is the median-effect dose signifying the potency. This is determined by the x-intercept of the median-effect plot. (fa) is the fraction affected by the dose. (fu) is the fraction unaffected, (1−fa). (m) is an exponent signifying the sigmoidicity (shape) of the dose-effect curve. It is determined by the slope of the median-effect plot. The linear correlation coefficient “r” should be greater than or equal to 0.90. The drug concentration units are arbitrary.
Combination index (CI) values <0.9 indicate synergism, CI values 0.9-1.1 indicate additivity, and CI values >1.1 indicate antagonism.
Each combination study was repeated on separate days a total of n=3 times unless otherwise noted, and the mean combination index value reported with standard error of the mean (sem).

Caki-2 cells = experiment: In vitro combination cytotoxicity (Cell Titer Glo, Chou-Talalay CI), Caki-2; type: cell-based; settings: Caki-2 cell line; single drug
Procedure: as §1
(§2) Cells were plated in 100 μL growth media per well into black-sided clear-bottom 96-well plates. […] Cytotoxicity was measured by incubating with 100 μL Cell Titer Glo (Promega) solution for 1 hour, and then luminescence was measured on a Fusion HT plate reader (Perkin Elmer). […]
(§3) (D) is the dose of the drug. […] This is determined by the x-intercept of the median-effect plot. […] It is determined by the slope of the median-effect plot. […]

L428 cells [1] = experiment: In vivo combination of cAC10-vcE and temsirolimus, B-like Hodgkin lymphoma murine xenograft; design: species or system NOD-SCID-gamma mice; settings: for Median Days to Triple Volume: L428 xenograft, cAC10-vcE 1.0 mg/kg q4dx4 ip, temsirolimus 20 mg/kg ip
Procedure: To test combination treatments in B-like Hodgkin lymphoma in vivo, a murine xenograft model was used. L428 cells were implanted into NOD-SCID-gamma mice (The Jackson Laboratory) to generate tumors. Tumors were grown to an average of 90 mm^3, then sorted into groups of 7 mice. Mice were not treated, treated with temsirolimus (20 mg/kg), treated with cAC10-vcE (1.0 mg/kg), or treated with cAC10-vcE and temsirolimus. The cAC10-vcE was administered q4dx4 ip. The temsirolimus was administered q4dx4 ip or q3dx6 ip. In the combination treatment, the cAC10-vcE was dosed 2 days before temsirolimus. Tumor volume was measured periodically for 120 days post initial dosing. Data was plotted as a Kaplan-Meier plot showing rate of tumor tripling. P-values were calculated using the Log-rank test to confirm statistical significance.

L428 cells [2] = experiment: In vivo combination of cAC10-vcE and everolimus, B-like Hodgkin lymphoma murine xenograft; design: species or system NOD-SCID-gamma mice; settings: for complete responses: L428 xenograft, day 61, groups of 10 mice, cAC10-vcE 1.0 mg/kg q4dx4 ip, everolimus 15 mg/kg po
Procedure: To test combination treatments in B-like Hodgkin lymphoma in vivo, a murine xenograft model was used. L428 cells were implanted into NOD-SCID-gamma mice (The Jackson Laboratory) to generate tumors. Tumors were grown to an average of 90 mm 3 , then sorted into groups of 10 mice. Mice were not treated, treated with everolimus (15 mg/kg), treated with cAC10 (1 mg/kg), treated with cAC10-vcE (1.0 mg/kg), treated with cAC10 and everolimus, or treated with cAC10-vcE and everolimus. The cAC10-vcE and cAC10 was administered q4dx4 ip. The everolimus was administered ql dx14 po.

Caki-1 cells = experiment: In vitro combination cytotoxicity (Cell Titer Glo, Chou-Talalay CI), Caki-1; type: cell-based; settings: Caki-1 cell line; FIG. 3
Procedure: as §1, §2, §3

HT cells = experiment: In vitro combination cytotoxicity (Cell Titer Glo, Chou-Talalay CI), HT; type: cell-based; settings: HT cell line
Procedure: as §1, §2, §3

CO[C@H]1C[C@@H]2CC[C@@H](C)[C@@](O)(O2)C(=O)C(=O)N2CCCC[C@H]2C(=O)O[C@H]([C@H](C)C[C@@H]2CC[C@@H](O)[C@H](OC)C2)CC(=O)[C@H](C)/C=C(\C)[C@@H](O)[C@@H](OC)C(=O)[C@H](C)C[C@H](C)/C=C/C=C/C=C/1C [sirolimus, rapamycin]
cytotoxicity of the drug alone (786-O cells): not potent cytotoxic drugs
effect on the cytotoxicity of h1F6-mcF (786-O cells): potentiate the cytotoxicity of h1F6-mcF
cytotoxicity of the drug alone (Caki-2 cells): not potent cytotoxic drugs except in the Caki-2 cell line grown in media with low FBS

cAC10-vcE: vc-MMAE (mc-vc-MMAE) antibody drug conjugate wherein the antibody is a chimeric AC10 (anti-CD30) antibody
interaction with temsirolimus in delaying tumor growth in vivo (L428 cells [1]; B-like HL murine xenograft model, FIG. 5): synergistic
Median Days to Triple Volume (L428 cells [1]): 52 days
interaction with everolimus in delaying tumor growth in vivo (L428 cells [2]; B-like HL murine xenograft model, FIG. 6): synergistic
complete responses (L428 cells [2]): no complete responses

CO[C@H]1C[C@@H]2CC[C@@H](C)[C@@](O)(O2)C(=O)C(=O)N2CCCC[C@H]2C(=O)O[C@H]([C@H](C)C[C@@H]2CC[C@@H](OC(=O)C(C)(CO)CO)[C@H](OC)C2)CC(=O)[C@H](C)/C=C(\C)[C@@H](O)[C@@H](OC)C(=O)[C@H](C)C[C@H](C)/C=C/C=C/C=C/1C [temsirolimus]
cytotoxicity of the drug alone (786-O cells): not potent cytotoxic drugs
effect on the cytotoxicity of h1F6-mcF (786-O cells): potentiate the cytotoxicity of h1F6-mcF
cytotoxicity of the drug alone (Caki-2 cells): not potent cytotoxic drugs except in the Caki-2 cell line grown in media with low FBS
Median Days to Triple Volume (L428 cells [1]): 56 days

CC[C@H](C)[C@@H]([C@@H](CC(=O)N1CCC[C@H]1[C@H](OC)[C@@H](C)C(=O)N[C@H](C)[C@@H](O)c1ccccc1)OC)N(C)C(=O)[C@@H](NC(=O)[C@@H](NC)C(C)C)C(C)C [MMAE, monomethyl auristatin E] (H-[NMeV]V[Dil][Dolaproine]-X1)
interaction with the rapalogs temsirolimus, sirolimus, and everolimus (786-O cells): synergistic
interaction with the rapalogs temsirolimus and sirolimus (Caki-1 cells): synergistic

CO[C@H]1C[C@@H]2CC[C@@H](C)[C@@](O)(O2)C(=O)C(=O)N2CCCC[C@H]2C(=O)O[C@H]([C@H](C)C[C@@H]2CC[C@@H](OCCO)[C@H](OC)C2)CC(=O)[C@H](C)/C=C(\C)[C@@H](O)[C@@H](OC)C(=O)[C@H](C)C[C@H](C)/C=C/C=C/C=C/1C [everolimus]
complete responses (L428 cells [2]): no complete responses

B1: hBU12-mcF (conjugate, chains of the INN, looked up)
VH: QVQLQESGPGLVKPSQTLSLTCTVSGGSISTSGMGVGWIRQHPGKGLEWIGHIWWDDDKRYNPALKSRVTISVDTSKNQFSLKLSSVTAADTAVYYCARMELWSYYFDYWGQGTLVTVSS
VL: EIVLTQSPATLSLSPGERATLSCSASSSVSYMHWYQQKPGQAPRLLIYDTSKLASGIPARFSGSGSGTDFTLTISSLEPEDVAVYYCFQGSVYPFTFGQGTKLEIK
modifications: maleimidocaproyl-MMAF (mcF) drug conjugate
interaction with the rapalogs temsirolimus and sirolimus (HT cells): synergistic

B2: h1F6-mcF (conjugate, chains of the INN, looked up)
VH: QVQLVQSGAEVKKPGASVKVSCKASGYTFTNYGMNWVRQAPGQGLKWMGWINTYTGEPTYADAFKGRVTMTRDTSISTAYMELSRLRSDDTAVYYCARDYGDYGMDYWGQGTTVTVSS
VL: DIVMTQSPDSLAVSLGERATINCRASKSVSTSGYSFMHWYQQKPGQPPKLLIYLASNLESGVPDRFSGSGSGTDFTLTISSLQAEDVAVYYCQHSREVPWTFGQGTKVEIK
modifications: maleimidocaproyl-MMAF (mcF) drug conjugate
interaction with the rapalogs temsirolimus, sirolimus, and everolimus (786-O cells): synergistic
interaction with the rapalogs temsirolimus and sirolimus (Caki-1 cells): synergistic
